In the assay the target is Glutamate receptor ionotropic, NMDA 1 (Rattus norvegicus, UniProt P35439). Put plainly: Inhibition of [3H]-3 binding to the glycine site on the NMDA receptor in Rat cortical membranes.

This passage reports IC50 results from ChEMBL document CHEMBL1128683, “Identification of 3,5-dihydro-2-aryl-1H-pyrazolo[3,4-c]quinoline-1,4(2H)-diones as novel high-affinity glycine site N-methyl-D-aspartate antagonists” (J Med Chem, 1995).

For the compound `O=c1[nH]c2ccccc2c2c(=O)n(-c3ccccc3Cl)[nH]c12`, the half-maximal inhibitory concentration (IC50) stood at 613 nM. In the case of `O=c1[nH]c2ccccc2c2c(=O)n(-c3ccc(Cl)cc3)[nH]c12` it was 138 nM; in that of `COc1ccc(-n2[nH]c3c(=O)[nH]c4cc(Cl)ccc4c3c2=O)cc1`, 3.3 nM; in that of `O=c1[nH]c2ccccc2c2c(=O)n(Cc3ccccc3)[nH]c12`, 562 nM. In the case of `O=c1[nH]c2ccccc2c2c(=O)n(-c3ccccc3)[nH]c12` it was 135 nM; in that of `O=c1[nH]c2ccccc2c2c(=O)n(-c3cccc(Cl)c3)[nH]c12`, 162 nM; in that of `Cn1[nH]c2c(=O)[nH]c3ccccc3c2c1=O`, 2020 nM. Under `COc1ccc(-n2[nH]c3c(=O)[nH]c4ccccc4c3c2=O)cc1` stands 87 nM. `O=c1[nH]c2cc(Cl)ccc2c2c(=O)n(-c3ccccc3)[nH]c12` displayed an IC50 of 16 nM. Compared with the last compound, the IC50 is about 5.4-fold lower. Turning to `Cn1c2c(=O)[nH]c3ccccc3c2c(=O)n1-c1ccccc1`, the IC50 is > 100 nM.

The IC50 is the midpoint of a concentration-inhibition curve. Read a high IC50 as weaker potency in that assay.
